From ChEMBL document CHEMBL4350991, “Design, synthesis, and biological evaluation of rutacecarpine derivatives as multitarget-directed ligands for the treatment of Alzheimer's disease” (Eur J Med Chem, 2019)
Calls of active or inactive are those of the source. No cut-off for these calls is given here.

Columns and labels:
Acetylcholinesterase = Acetylcholinesterase (Electrophorus electricus, UniProt O42275); assay type: ADME
Description: Inhibition of electric eel AChE using acetylthiocholine iodide as substrate preincubated for 30 mins followed by substrate addition and measured after 30 mins by Ellman's method

[1] = biological target: Cholinesterase (Equus caballus) (UniProt P81908); experiment: Mixed-type inhibition of equine serum BuChE up to 8 uM using varying levels of S-butyrylthiocholine iodide as substrate preincubated for 30 mins followed by substrate addition and measured after 30 mins by Lineweaver-Burk plot analysis
SH-SY5Y [2] = experiment: Neuro-antioxidant activity against H2O2-induced oxidative stress in human SH-SY5Y cells assessed as intracellular ROS generation at 1 uM preincubated for 6 hrs followed by H2O2 challenge for 24 hrs by DCFH-DA staining-based fluorescence assay (reference value: 119.61 +/- 5.269%); assay type: functional
SH-SY5Y [3] = experiment: Neuro-antioxidant activity against H2O2-induced oxidative stress in human SH-SY5Y cells assessed as intracellular ROS generation at 5 uM preincubated for 6 hrs followed by H2O2 challenge for 24 hrs by DCFH-DA staining-based fluorescence assay (reference value: 119.61 +/- 5.269%); assay type: functional
SH-SY5Y [4] = experiment: Neuro-antioxidant activity against H2O2-induced oxidative stress in human SH-SY5Y cells assessed as intracellular ROS generation at 10 uM preincubated for 6 hrs followed by H2O2 challenge for 24 hrs by DCFH-DA staining-based fluorescence assay (reference value: 119.61 +/- 5.269%); assay type: functional
SH-SY5Y [5] = experiment: Neuro-antioxidant activity against H2O2-induced oxidative stress in human SH-SY5Y cells assessed as intracellular ROS generation at 20 uM preincubated for 6 hrs followed by H2O2 challenge for 24 hrs by DCFH-DA staining-based fluorescence assay (reference value: 119.61 +/- 5.269%); assay type: functional
SH-SY5Y [6] = experiment: Neuro-antioxidant activity in human SH-SY5Y cells assessed as H2O2-induced increase in intracellular ROS generation at 50 uM preincubated for 6 hrs followed by H2O2 challenge for 24 hrs by DCFH-DA staining-based fluorescence assay relative to control (reference value: 119.61 +/- 5.269%); assay type: functional
[7] = biological target: Amyloid-beta precursor protein (Homo sapiens) (UniProt P05067); experiment: Inhibition of self-mediated amyloid beta (1 to 42) (unknown origin) aggregation assessed as short and thin fibril formation at 100 uM incubated for 48 hrs by transmission electron microscopic method
[8] = Metal chelating activity assessed as compound-Cu2+ complex formation at 20 uM in presence of CuCl2 after 1 hr by UV-visible spectrophotometric analysis
[9] = Metal chelating activity assessed as compound-Zn2+ complex formation at 20 uM in presence of ZnCl2 after 1 hr by UV-visible spectrophotometric analysis
[10] = Metal chelating activity assessed as compound-Fe2+ complex formation at 20 uM in presence of FeSO4 after 1 hr by UV-visible spectrophotometric analysis
[11] = Metal chelating activity assessed as compound-Al3+ complex formation at 20 uM in presence of AlCl3 after 1 hr by UV-visible spectrophotometric analysis
[12] = Metal chelating activity assessed as compound-Mg2+ complex formation at 20 uM in presence of MgCl2 after 1 hr by UV-visible spectrophotometric analysis
[13] = Metal chelating activity assessed as compound-Ca2+ complex formation at 20 uM in presence of CaCl2 after 1 hr by UV-visible spectrophotometric analysis
[14] = n-Octanol-phosphate buffer partition co-efficient, log P of compound at pH 7.4 incubated for 48 hrs by UV spectrophotometry-based shake-flask method; assay type: physicochemical
PC-12 [15] = experiment: cells; assay type: functional; details: Rattus norvegicus
PC-12 [16] = experiment: cells; assay type: functional; details: Rattus norvegicus; remark: listed apart in the source
PC-12 [17] = experiment: cells; assay type: functional; details: Rattus norvegicus; remark: listed apart in the source
PC-12 [18] = experiment: cells; assay type: functional; details: Rattus norvegicus; remark: listed apart in the source
PC-12 [19] = experiment: cells; assay type: functional; details: Rattus norvegicus; remark: listed apart in the source
SH-SY5Y [20] = experiment: Neuroprotective activity against amyloid beta (1 to 42 residues) induced cytotoxicity in human SH-SY5Y cells assessed as cell viability at 10 uM pretreated for 3 hrs followed by amyloid beta(1-42) challenge measured after 24 hrs by MTT assay (reference value: 37.53 +/- 1.4%); assay type: functional; details: read-out: Activity
SH-SY5Y [21] = experiment: Neuroprotective activity against amyloid beta (1 to 42 residues) induced cytotoxicity in human SH-SY5Y cells assessed as cell viability at 30 uM pretreated for 3 hrs followed by amyloid beta(1-42) challenge measured after 24 hrs by MTT assay (reference value: 37.53 +/- 1.4 %); assay type: functional; details: read-out: Activity
SH-SY5Y [22] = experiment: Neuroprotective activity against amyloid beta (1 to 42 residues) induced cytotoxicity in human SH-SY5Y cells assessed as cell viability at 50 uM pretreated for 3 hrs followed by amyloid beta(1-42) challenge measured after 24 hrs by MTT assay (reference value: 37.53 +/- 1.4 %); assay type: functional; details: read-out: Activity
SH-SY5Y [23] = experiment: Neuroprotective activity against H2O2-induced cytotoxicity in human SH-SY5Y cells assessed as cell viability at 10 uM pretreated for 3 hrs followed by H2O2 challenge measured after 24 hrs by MTT assay (reference value: 42.69 +/- 0.8%); assay type: functional; details: read-out: Activity
SH-SY5Y [24] = experiment: Neuroprotective activity against H2O2-induced cytotoxicity in human SH-SY5Y cells assessed as cell viability at 30 uM pretreated for 3 hrs followed by H2O2 challenge measured after 24 hrs by MTT assay (reference value: 42.69 +/- 0.8%); assay type: functional; details: read-out: Activity
SH-SY5Y [25] = experiment: Neuroprotective activity against H2O2-induced cytotoxicity in human SH-SY5Y cells assessed as cell viability at 50 uM pretreated for 3 hrs followed by H2O2 challenge measured after 24 hrs by MTT assay (reference value: 42.69 +/- 0.8%); assay type: functional; details: read-out: Activity
[26] = Metal chelating activity assessed as mole fraction of compound required to show 1:1 stoichiometry for compound-Cu2+ complex at 20 uM after 1 hr by UV-Vis absorption spectrophotometric method
PC-12 [27] = experiment: Neuroprotective activity against H2O2 induced cytotoxicity in rat PC12 cells assessed as increase in cell viability pretreated for 3 hrs followed by H2O2 challenge measured after 24 hrs by MTT assay; assay type: functional, cell-based
SH-SY5Y [28] = experiment: Neuroprotective activity against amyloid beta (1 to 42 residues) induced cytotoxicity in human SH-SY5Y cells assessed as increase in cell viability pretreated for 3 hrs followed by amyloid beta (1 to 42 residues) challenge measured after 24 hrs by MTT assay; assay type: functional, cell-based
SH-SY5Y [29] = experiment: Neuroprotective activity against H2O2-induced cytotoxicity in human SH-SY5Y cells assessed as increase in cell viability pretreated for 3 hrs followed by H2O2 challenge measured after 24 hrs by MTT assay; assay type: functional, cell-based
Cholinesterase = Cholinesterase (Equus caballus, UniProt P81908)
Cholinesterase, sequence (P81908 whole entry): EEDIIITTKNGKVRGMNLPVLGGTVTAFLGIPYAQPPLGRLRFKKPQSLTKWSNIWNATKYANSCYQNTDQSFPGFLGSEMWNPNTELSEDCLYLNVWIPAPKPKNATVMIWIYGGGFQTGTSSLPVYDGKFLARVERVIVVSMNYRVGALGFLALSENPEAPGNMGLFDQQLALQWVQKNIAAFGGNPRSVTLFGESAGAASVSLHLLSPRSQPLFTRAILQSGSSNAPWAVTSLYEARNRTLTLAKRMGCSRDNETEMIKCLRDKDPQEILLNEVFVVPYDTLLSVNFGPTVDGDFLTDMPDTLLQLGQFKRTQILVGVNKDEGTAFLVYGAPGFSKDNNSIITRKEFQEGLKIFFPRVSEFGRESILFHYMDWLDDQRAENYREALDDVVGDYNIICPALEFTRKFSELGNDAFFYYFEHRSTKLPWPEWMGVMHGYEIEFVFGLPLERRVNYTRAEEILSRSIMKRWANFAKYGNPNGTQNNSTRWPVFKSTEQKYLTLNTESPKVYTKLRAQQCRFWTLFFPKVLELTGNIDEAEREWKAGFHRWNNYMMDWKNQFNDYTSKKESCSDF
Description: Inhibition of equine serum BuChE using S-butyrylthiocholine iodide as substrate preincubated with enzyme for 30 mins followed by substrate addition and measured after 30 mins by Ellman's method

Cholinesterase (Equus caballus), sequence (P81908 whole entry): as above
Amyloid-beta precursor protein (Homo sapiens), sequence (P05067 whole entry): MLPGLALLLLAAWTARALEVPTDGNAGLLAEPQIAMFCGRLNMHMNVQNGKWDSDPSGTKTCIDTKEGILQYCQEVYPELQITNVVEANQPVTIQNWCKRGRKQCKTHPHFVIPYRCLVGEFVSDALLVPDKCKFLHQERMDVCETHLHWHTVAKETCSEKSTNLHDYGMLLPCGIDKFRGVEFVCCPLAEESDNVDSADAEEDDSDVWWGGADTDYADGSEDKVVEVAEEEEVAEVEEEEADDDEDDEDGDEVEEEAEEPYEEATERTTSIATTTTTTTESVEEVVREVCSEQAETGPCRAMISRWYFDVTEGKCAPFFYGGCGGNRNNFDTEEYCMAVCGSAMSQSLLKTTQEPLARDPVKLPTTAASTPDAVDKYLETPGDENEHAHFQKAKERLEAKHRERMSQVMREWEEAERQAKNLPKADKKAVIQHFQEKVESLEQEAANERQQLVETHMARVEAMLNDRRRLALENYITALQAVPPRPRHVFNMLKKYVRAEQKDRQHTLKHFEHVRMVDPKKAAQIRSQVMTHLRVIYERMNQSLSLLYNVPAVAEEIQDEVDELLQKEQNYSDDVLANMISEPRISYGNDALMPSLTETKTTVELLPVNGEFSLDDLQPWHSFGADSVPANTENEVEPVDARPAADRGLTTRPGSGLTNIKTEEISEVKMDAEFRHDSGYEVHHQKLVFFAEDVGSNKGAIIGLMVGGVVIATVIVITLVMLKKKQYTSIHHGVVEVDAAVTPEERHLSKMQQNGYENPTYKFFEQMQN
Acetylcholinesterase, sequence (O42275 whole entry): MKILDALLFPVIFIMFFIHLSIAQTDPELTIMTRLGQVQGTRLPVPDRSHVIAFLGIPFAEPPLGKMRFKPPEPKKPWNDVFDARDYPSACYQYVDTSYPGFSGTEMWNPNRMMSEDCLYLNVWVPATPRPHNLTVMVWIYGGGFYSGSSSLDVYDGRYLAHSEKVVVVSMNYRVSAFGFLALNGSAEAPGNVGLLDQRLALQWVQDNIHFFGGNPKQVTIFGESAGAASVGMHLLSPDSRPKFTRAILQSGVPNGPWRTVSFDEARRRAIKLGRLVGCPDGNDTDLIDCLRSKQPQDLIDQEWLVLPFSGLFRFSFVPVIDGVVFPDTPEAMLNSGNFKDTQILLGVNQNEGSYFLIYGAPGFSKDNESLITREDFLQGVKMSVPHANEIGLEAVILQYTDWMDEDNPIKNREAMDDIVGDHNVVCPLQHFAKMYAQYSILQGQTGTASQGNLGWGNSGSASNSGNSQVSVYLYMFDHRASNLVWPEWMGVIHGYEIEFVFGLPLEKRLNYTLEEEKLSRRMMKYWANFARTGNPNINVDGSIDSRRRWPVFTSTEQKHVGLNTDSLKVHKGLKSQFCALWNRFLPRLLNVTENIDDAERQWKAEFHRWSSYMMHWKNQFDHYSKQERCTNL

O=c1c2cc(NS(=O)(=O)c3ccccc3OC(F)(F)F)ccc2nc2n1CCc1c-2[nH]c2ccccc12
IC50 (Acetylcholinesterase): > 100 µM
inhibition [1]: Active
Activity (SH-SY5Y [2]): 83.17%
Activity (SH-SY5Y [3]): 84.23%
Activity (SH-SY5Y [4]): 82.464%
Activity (SH-SY5Y [5]): 105.494%
Activity (SH-SY5Y [6]): 98.502%
inhibition [7]: Active
Activity [8]: Active
Activity [9]: inactive
Activity [10]: inactive
Activity [11]: inactive
Activity [12]: inactive
Activity [13]: inactive
logD at 48 h [14]: 3.62
viability at 1 µM (PC-12 [15]): 44.3%
viability at 5 µM (PC-12 [16]): 45.3%
viability at 10 µM (PC-12 [17]): 59.7%
viability at 30 µM (PC-12 [18]): 59.9%
viability at 50 µM (PC-12 [19]): 63.8%
viability at 10 µM (SH-SY5Y [20]): 47.9%
viability at 30 µM (SH-SY5Y [21]): 57.6%
viability at 50 µM (SH-SY5Y [22]): 64.2%
viability at 10 µM (SH-SY5Y [23]): 53.9%
viability at 30 µM (SH-SY5Y [24]): 61.7%
viability at 50 µM (SH-SY5Y [25]): 61.9%
Activity [26]: 1.1 molar ratio
Activity (PC-12 [27]): Dose-dependent effect
Activity (SH-SY5Y [28]): Dose-dependent effect
Activity (SH-SY5Y [29]): Dose-dependent effect
IC50 (Cholinesterase): 3.6 µM
